Like-named read-outs stand apart in the source and are kept apart here.
Columns and labels:
[1] = target: T1, Hsp90 in C. albicans (SC5314) lysate (Candida albicans, UniProt P46598); experiment: biochemical; format: binding; settings: for FP signal: raw
T1 construct: endogenous in cells; host or cells: C. albicans SC5314 whole-cell lysate

Hsp90 in HEPG2 lysate = settings: for FP signal: raw
[2] = SC5314 lysate, 0.457 nM compound
[3] = SC5314 lysate, 1.372 nM compound
[4] = SC5314 lysate, 4.115 nM compound
[5] = SC5314 lysate, 12.346 nM compound
[6] = SC5314 lysate, 37.037 nM compound
[7] = SC5314 lysate, 111.111 nM compound
[8] = SC5314 lysate, 333.333 nM compound
[9] = SC5314 lysate, 1000 nM compound
[10] = SC5314 lysate, 3000 nM compound

T1 sequence (P46598 whole entry): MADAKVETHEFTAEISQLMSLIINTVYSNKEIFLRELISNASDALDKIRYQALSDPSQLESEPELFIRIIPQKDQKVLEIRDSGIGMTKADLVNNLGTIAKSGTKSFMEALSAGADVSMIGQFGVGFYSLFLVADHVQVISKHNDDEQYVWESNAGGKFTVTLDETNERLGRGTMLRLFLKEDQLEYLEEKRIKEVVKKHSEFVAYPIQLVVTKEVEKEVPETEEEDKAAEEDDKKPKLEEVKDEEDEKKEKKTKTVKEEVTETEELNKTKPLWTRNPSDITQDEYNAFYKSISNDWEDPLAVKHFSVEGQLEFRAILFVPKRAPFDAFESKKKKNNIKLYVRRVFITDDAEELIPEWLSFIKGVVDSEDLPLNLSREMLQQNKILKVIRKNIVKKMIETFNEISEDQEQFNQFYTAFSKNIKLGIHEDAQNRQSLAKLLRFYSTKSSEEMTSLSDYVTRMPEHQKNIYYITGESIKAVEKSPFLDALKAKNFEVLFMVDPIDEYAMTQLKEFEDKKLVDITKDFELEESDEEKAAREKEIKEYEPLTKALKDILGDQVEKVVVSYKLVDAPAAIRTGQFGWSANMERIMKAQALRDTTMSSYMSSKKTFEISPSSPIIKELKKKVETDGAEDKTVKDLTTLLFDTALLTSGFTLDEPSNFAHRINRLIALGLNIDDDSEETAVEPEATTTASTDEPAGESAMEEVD

Ratio re. GdA ([1]; EC50 relative to GdA, SC5314 lysate): 57.1252 | FP signal (raw) ([1]; SC5314 lysate, 0.457 nM): 202 | FP signal relative to 0 nM [1, 2]: 0.9806 | FP signal [1, 2]: 202 | FP signal (raw) ([1]; SC5314 lysate, 1.372 nM): 199 | FP signal relative to 0 nM [1, 3]: 0.966 | FP signal [1, 3]: 199 | FP signal (raw) ([1]; SC5314 lysate, 4.115 nM): 200 | FP signal relative to 0 nM [1, 4]: 0.9709 | FP signal [1, 4]: 200 | FP signal (raw) ([1]; SC5314 lysate, 12.346 nM): 199 | FP signal relative to 0 nM [1, 5]: 0.966 | FP signal [1, 5]: 199 | FP signal (raw) ([1]; SC5314 lysate, 37.037 nM): 200 | FP signal relative to 0 nM [1, 6]: 0.9709 | FP signal [1, 6]: 200 | FP signal (raw) ([1]; SC5314 lysate, 111.111 nM): 197 | FP signal relative to 0 nM [1, 7]: 0.9563 | FP signal [1, 7]: 197 | FP signal (raw) ([1]; SC5314 lysate, 333.333 nM): 171 | FP signal relative to 0 nM [1, 8]: 0.8301 | FP signal [1, 8]: 171 | FP signal (raw) ([1]; SC5314 lysate, 1000 nM): 108 | FP signal relative to 0 nM [1, 9]: 0.5243 | FP signal [1, 9]: 108 | FP signal (raw) ([1]; SC5314 lysate, 3000 nM): 45 | FP signal relative to 0 nM [1, 10]: 0.2184 | FP signal [1, 10]: 45 | HepG2/SC5314 ([1]; ratio of GdA-normalized EC50s, human over fungal lysate): 1.973 | HepG2/SC5314 ([1]; ratio of GdA-relative EC50 ratios, HepG2 over SC5314): 1.973 | EC50 (Hsp90 in HEPG2 lysate; HepG2 lysate, oxime panel experiment 220817): 2500 nM
SMILES: Cc1ccc(CON=C2C=CC=CC3OC3CC(C)OC(=O)c3c(O)cc(O)c(Cl)c3C2)cc1 (mixture of isomers) [compound 218]
Ratio rel. GdA (HepG2) (Hsp90 in HEPG2 lysate; EC50 / EC50 of GdA in HepG2 lysate): 112.714 | Ratio rel. GdA (HepG2) (Hsp90 in HEPG2 lysate; EC50 relative to GdA, HEPG2 lysate): 112.714 | FP signal, Fxn Control (Hsp90 in HEPG2 lysate; HEPG2 lysate, log concentration 0.137354 (1.372 nM)): 0.9811 | FP signal, Fxn Control (Hsp90 in HEPG2 lysate; HEPG2 lysate, log concentration 0.61437 (4.115 nM)): 0.9953 | FP signal, Fxn Control (Hsp90 in HEPG2 lysate; HEPG2 lysate, log concentration 1.09153 (12.346 nM)): 0.9858 | FP signal, Fxn Control (Hsp90 in HEPG2 lysate; HEPG2 lysate, log concentration 1.56864 (37.037 nM)): 0.9906 | FP signal, Fxn Control (Hsp90 in HEPG2 lysate; HEPG2 lysate, log concentration 2.04576 (111.111 nM)): 0.9811 | FP signal, Fxn Control (Hsp90 in HEPG2 lysate; HEPG2 lysate, log concentration 2.52288 (333.333 nM)): 0.9575 | FP signal, Fxn Control (Hsp90 in HEPG2 lysate; HEPG2 lysate, log concentration 3 (1000 nM)): 0.8066 | FP signal, Fxn Control (Hsp90 in HEPG2 lysate; HEPG2 lysate, log concentration 3.47712 (3000 nM)): 0.4009 | FP signal, Fxn Control (Hsp90 in HEPG2 lysate; HEPG2 lysate, log concentration -0.340084 (0.457 nM)): 0.9906 | FP signal (raw) (Hsp90 in HEPG2 lysate; HepG2 lysate, 0.457 nM): 210 | FP signal (Hsp90 in HEPG2 lysate; HepG2 lysate, 0.457 nM compound): 210 | FP signal (raw) (Hsp90 in HEPG2 lysate; HepG2 lysate, 1.372 nM): 208 | FP signal (Hsp90 in HEPG2 lysate; HepG2 lysate, 1.372 nM compound): 208 | FP signal (raw) (Hsp90 in HEPG2 lysate; HepG2 lysate, 4.115 nM): 211 | FP signal (Hsp90 in HEPG2 lysate; HepG2 lysate, 4.115 nM compound): 211 | FP signal (raw) (Hsp90 in HEPG2 lysate; HepG2 lysate, 12.346 nM): 209 | FP signal (Hsp90 in HEPG2 lysate; HepG2 lysate, 12.346 nM compound): 209 | FP signal (raw) (Hsp90 in HEPG2 lysate; HepG2 lysate, 37.037 nM): 210 | FP signal (Hsp90 in HEPG2 lysate; HepG2 lysate, 37.037 nM compound): 210 | FP signal (raw) (Hsp90 in HEPG2 lysate; HepG2 lysate, 111.111 nM): 208 | FP signal (Hsp90 in HEPG2 lysate; HepG2 lysate, 111.111 nM compound): 208 | FP signal (raw) (Hsp90 in HEPG2 lysate; HepG2 lysate, 333.333 nM): 203 | FP signal (Hsp90 in HEPG2 lysate; HepG2 lysate, 333.333 nM compound): 203 | FP signal (raw) (Hsp90 in HEPG2 lysate; HepG2 lysate, 1000 nM): 171 | FP signal (Hsp90 in HEPG2 lysate; HepG2 lysate, 1000 nM compound): 171 | FP signal (raw) (Hsp90 in HEPG2 lysate; HepG2 lysate, 3000 nM): 85 | FP signal (Hsp90 in HEPG2 lysate; HepG2 lysate, 3000 nM compound): 85

Source: paper PMC6345968, “Structural basis for species-selective targeting of Hsp90 in a pathogenic fungus” (Nature Communications, 2019)
